Results published in patent US10080751B2, “Systems and methods for treating bacterial infection” (priority 2016, dated 2018).
Values after ≈ are worked out from the molar mass of the structure shown. Where two headings read alike, the source gives them in different places.

How the values were obtained:
K. pneumoniae = assay: MIC with/without bovine pulmonary surfactant, K. pneumoniae; type: cell-based, Klebsiella pneumoniae; conditions: for MIC: Klebsiella pneumoniae
Protocol: Clinical isolates were identified by the submitting laboratories and confirmed by JMI Laboratories using standard bacteriologic algorithms and methodologies, including Matrix-Assisted Laser Desorption Ionization-Time Of Flight Mass Spectrometry (MALDI-TOF MS). When necessary, MALDI-TOF MS was performed using the Bruker Daltonics MALDI Biotyper (Billerica, Mass., USA), following manufacturer's instructions. Isolates selected were bacterial species commonly associated with pneumonia. […] 2.2 Susceptibility testing
Antibacterial susceptibility testing was measured by JMI Labs (North Liberty, Iowa, USA). […] These clinical isolates were collected from US (n=4), Mexico (n=2), and Italy (n=1). Susceptibility testing was performed by broth microdilution in accordance with the Clinical and Laboratory and Standards Institute (CLSI) guidelines M07-A10 (2015) and the standard operating procedures at JMI laboratories. Minimum inhibitory concentrations (MICs) were based on CLSI criteria (2015). There are no published breakpoints for iclaprim. E. coli, K. pneumoniae, M. catarrhalis, E. faecalis, and S. aureus were tested in cation-adjusted Mueller-Hinton broth (CA-MHB). S. pneumoniae were tested in CA-MHB supplemented with 2.5-5% lysed horse blood, and H. influenza were tested in Haemophilus test medium. Quality control and interpretation of results were performed in accordance with CLSI M100-S26 (2016) methods. QC ranges for iclaprim were those approved by CLSI and published in M100-S26 (2016). Iclaprim and comparator antibiotic MIC results were within the CLSI published ranges against E. coli ATCC 25922, E. faecalis ATCC 29212, E. faecalis ATCC 33186, H. influenzae ATCC 49247, K. pneumoniae ATCC 700603 (ESBL phenotype), S. aureus ATCC 29213, and S. pneumoniae ATCC 49619. Isolates were tested with MIC panels (ThermoFisher Scientific, Cleveland, Ohio, USA) of comparator antibiotics (daptomycin and levofloxacin).
Because bovine pulmonary surfactant can introduce cloudiness to the MIC testing media, antimicrobial growth inhibition was also evaluated using the colorimetric metabolic indicator resazurin (Camlab Ltd., Cambridge, UK). […] S. pneumoniae panels were omitted from resazurin analysis because the color change was obscured by the lysed horse blood present in the test medium. Growth inhibition was then evaluated as a visible color change from blue (no growth) to pink (robust growth) and recorded as a MICRZ value.
The MICs of iclaprim, levofloxacin, and daptomycin were determined against Gram-positive and Gram-negative isolates.
A new vial of bovine pulmonary surfactant (BPS; Survanta®; Abbott Laboratories, Columbus, Ohio) was utilized for each independent experiment. Each vial was mixed thoroughly and a 100 μL aliquot was spread on an agar plate, which was incubated overnight to confirm sterility. […] The concentration of surfactant was expressed in terms of percent volume of Survanta® suspension, which consisted of phospholipid (25 mg/mL) and surfactant proteins (<1 mg/mL) in 0.9% sodium chloride solution (Goerke, 1998). MICs of daptomycin were determined in CAMHB with the Ca^2+ content adjusted to 50 mg/L.

S. aureus strain AH1252 = assay: Neutropenic rat lung infection model; type: in vivo; conditions: iclaprim 80 mg/kg
Protocol: S. aureus strain AH1252, a thymidine knockout of the MRSA wild type AW6 strain, was utilized for this study. The bacterial strain was diluted in a 2% alginate buffer, which was added dropwise in a ratio of 1:5 into […] to form alginate beads. The alginate beads reduce the efficacy of bacterial clearance similar to that seen in the cystic fibrosis population. A 5.25×10^4 bacterial inoculum was administered to groups of 9 rats, intratracheally, with prepared alginate bacteria suspensions, under isoflurane anesthesia. […] Twelve hours after the last treatment, rats were euthanized and lungs collected for CFU determination.

S. aureus = conditions: worldwide surveillance studies; cited from earlier work
[1] = SC/BID 3 days, vancomycin 50 mg/kg

For `COc1cc(Cc2cnc(N)nc2N)c2c(c1OC)OC(C1CC1)C=C2` (racemic) [Iclaprim], the “MICRZ, Resazurin: +BPS” value (K. pneumoniae; K. pneumoniae ATCC 700603, 2.5% v/v BPS) was 4 µg/mL, the “MICRZ, Resazurin” value (K. pneumoniae; K. pneumoniae ATCC 700603, no BPS) was 4 µg/mL and the “MICRZ, Resazurin: +BPS” value (K. pneumoniae; K. pneumoniae Clinical Isolate 858055, 2.5% v/v BPS) was 2 µg/mL. For the same compound, the “MICRZ, Resazurin” value (K. pneumoniae; K. pneumoniae Clinical Isolate 858055, no BPS) was 2 µg/mL, the MIC (K. pneumoniae; ATCC700603, K. pneumoniae ATCC 700603, 2.5% v/v BPS, read-out: MIC, CLSI: +BPS) was 4 µg/mL (≈ 11.3 µM) and the MIC (K. pneumoniae; ATCC700603, K. pneumoniae ATCC 700603, no BPS, read-out: MIC, CLSI) was 4 µg/mL (≈ 11.3 µM). The MIC (K. pneumoniae; K. pneumoniae Clinical Isolate 858055, 2.5% v/v BPS, read-out: MIC, CLSI: +BPS) was 2 µg/mL (≈ 5.64 µM), the MIC (K. pneumoniae; K. pneumoniae Clinical Isolate 858055, no BPS, read-out: MIC, CLSI) was 2 µg/mL (≈ 5.64 µM) and the “72 hour lungs (CFU/gram of lung) log10CFU/Lung” value (S. aureus strain AH1252; [1]) was 3.34 log10CFU/Lung. The “Change in CFUs from 2 hr.” value (S. aureus strain AH1252; [1]) was 0.22 log 10 CFU, the “Survival >60 hrs” value (S. aureus strain AH1252; SC/BID 3 days, vancomycin 50 mg/kg, 9 rats) was 9/9 and the “survival compared to the infection controls” value (S. aureus strain AH1252; vancomycin 50 mg/kg SC/BID) was “increased survival”. For the same compound, the “Change in CFUs from 72 hr.” value (S. aureus strain AH1252; vs 72 hr infection controls, vancomycin 50 mg/kg SC/BID) was −5.34 log 10 CFU and the “MIC90 of S. aureus” value (S. aureus) was 0.12 µg/mL.
